# Literature values in PMC7464078, “CYP3A Excipient-Based Microemulsion Prolongs the Effect of Magnolol on Ischemia Stroke Rats” (Pharmaceutics, 2020).
# Read-outs that look alike come from different tables or passages of the source.
# Experiments:
# [1] = design: method as in PMID 21638244
# CYP3A = system: CYP3A; design: method as in PMID 14716751, PMID 11137342; settings: hepatocytes and liver microsomes
molecule,measurement,setting,value
"C=CCc1ccc(O)c(-c2cc(CC=C)ccc2O)c1 [Magnolol, 5,5′-diallyi-2,2′-dihydroxybiphenyl]",Bioavailability,[1],4%
same,Inhibition of rat CYP1A2,rat CYP1A2; in vitro,relatively strong inhibitors
same,Inhibition of rat CYP2E1,rat CYP2E1; in vitro,relatively strong inhibitors
same,Inhibition of human CYP3A4,human CYP3A4; in vitro,weak inhibitors
same,Inhibition of rat CYP3A,rat CYP3A; in vitro,weak inhibitors
same,Water solubility,at 25 °C,1.24 µg/mL
same,Solubility in dimethyl sulfoxide,"ref Item No. 14233, Cyman Chemical",approximately 16 mg/mL
C=CCc1ccc(O)c(-c2ccc(O)c(CC=C)c2)c1 [honokiol],Inhibition of rat CYP1A2,rat CYP1A2,relatively strong inhibitors
same,Inhibition of rat CYP2E1,rat CYP2E1,relatively strong inhibitors
same,Inhibition of human CYP3A4,human CYP3A4,weak inhibitors
same,Inhibition of rat CYP3A,rat CYP3A,weak inhibitors
Tween-80,Effect on CYP3A activity,CYP3A,inhibited
